Reference: patent publication US20130324412A1, “N-ALKOXYAMIDES OF 6-(SUBSTITUTED PHENYL)-4-AMINOPICOLINATES AND 2-(SUBSTITUTED PHENYL)-6-AMINO-4-PYRIMIDINECARBOXYLATES AND THEIR USE AS SELECTIVE HERBICIDES FOR CROPS” (DOW AGROSCIENCES LLC, priority 2009, published 2013)
Read-outs that look alike come from different tables or passages of the source.

What was measured:
Type in all cases: in vivo
[1] = tested on: lambsquarters (Chenopodium album); test: General postemergence herbicidal activity, lambsquarters; details: post-emergence, 336 h, read-out: CHEAL % Visual Injury; for pest or weed control at 140 g/ha: 140 g ai/ha; for pest or weed control at 280 g/ha: 280 g ai/ha; for pest or weed control at 35 g/ha: 35 g ai/ha
Experimental: (§1) Seeds or nutlets of the desired test plant species were planted in Sun Gro MetroMix® 360 planting mixture, which typically has a pH of 6.0 to 6.8 and an organic matter content of about 30 percent, in plastic pots with a surface area of 64 square centimeters (cm^2). When required to ensure good germination and healthy plants, a fungicide treatment and/or other chemical or physical treatment was applied. The plants were grown for 7-21 days (d) in a greenhouse with an approximate 15-hour (h) photoperiod which was maintained at about 23-29° C. during the day and 22-28° C. during the night. Nutrients and water were added on a regular basis and supplemental lighting was provided with overhead metal halide 1000-Watt lamps as necessary. The plants were employed for testing when they reached the first or second true leaf stage.
(§2) A weighed amount, determined by the highest rate to be tested, of each test compound was dissolved in 4 mL of a 97:3 volume per volume (v/v) mixture of acetone and dimethyl sulfoxide (DMSO) to obtain concentrated stock solutions. […] The concentrated stock solutions obtained were diluted with 20 mL of an aqueous mixture containing acetone, water, isopropyl alcohol, DMSO, Atplus 411F crop oil concentrate, and Triton X-155 surfactant in a 48.5:39:10:1.5:1.0:0.02 v/v ratio to obtain spray solutions containing the highest application rates. Additional application rates were obtained by serial dilution of 12 mL of the high rate solution into a solution containing 2 mL of 97:3 v/v mixture of acetone and DMSO and 10 mL of an aqueous mixture containing acetone, water, isopropyl alcohol, DMSO, Atplus 411F crop oil concentrate, and Triton X-155 surfactant in a 48.5:39:10:1.5:1.0:0.02 v/v ratio to obtain ½×, ¼×, ⅛× and 1/16× rates of the high rate. Compound requirements are based upon a 12 mL application volume at a rate of 187 liters per hectare (L/ha). Formulated compounds were applied to the plant material with an overhead Mandel track sprayer equipped with 8002E nozzles calibrated to deliver 187 L/ha over an application area of 0.503 square meters (m^2) at a spray height of 18 inches (43 cm) above the average plant canopy height. Control plants were sprayed in the same manner with the solvent blank.
(§3) The treated plants and control plants were placed in a greenhouse as described above and watered by sub-irrigation to prevent wash-off of the test compounds. After 14 d, the condition of the test plants as compared with that of the untreated plants was determined visually and scored on a scale of 0 to 100 percent where 0 corresponds to no injury and 100 corresponds to complete kill.

[2] = tested on: corn (Zea mays); test: General postemergence herbicidal activity, corn; details: post-emergence, 336 h, read-out: ZEAMX % Visual Injury; for plant injury at 140 g/ha: 140 g ai/ha; for plant injury at 280 g/ha: 280 g ai/ha; for plant injury at 35 g/ha: 35 g ai/ha
Experimental: as §1, §2, §3

[3] = tested on: wild buckwheat (Polygonum convululus); test: General postemergence herbicidal activity, wild buckwheat; details: post-emergence, 336 h, read-out: POLCO % Visual Injury; for pest or weed control at 140 g/ha: 140 g ai/ha; for pest or weed control at 280 g/ha: 280 g ai/ha; for pest or weed control at 35 g/ha: 35 g ai/ha
Experimental: as §1, §2, §3

[4] = tested on: velvetleaf (Abutilon theophrasti); test: General postemergence herbicidal activity, velvetleaf; details: post-emergence, 336 h, read-out: ABUTH % Visual Injury; for pest or weed control at 140 g/ha: 140 g ai/ha; for pest or weed control at 280 g/ha: 280 g ai/ha; for pest or weed control at 35 g/ha: 35 g ai/ha
Experimental: as §1, §2, §3

[5] = postemergence, after 14 d, 0 = no injury, 100 = complete kill
[6] = 70 g ai/ha, postemergence, after 14 d, 0 = no injury, 100 = complete kill
[7] = 17.5 g ai/ha, postemergence, after 14 d, 0 = no injury, 100 = complete kill

Compound: COc1c(Cl)ccc(-c2cc(N)c(Cl)c(C(=O)N3CCCO3)n2)c1F [Compound 40, (4-Amino-3-chloro-6-(4-chloro-2-fluoro-3-methoxyphenyl)pyridin-2-yl)(isoxazolidin-2-yl)methanone]
- pest or weed control at 140 g/ha [1, 5]: 100%
- plant injury at 140 g/ha [2, 5]: 20%
- pest or weed control at 140 g/ha [3, 5]: 100%
- pest or weed control at 140 g/ha [4, 5]: 95%

Compound: COc1c(Cl)ccc(-c2cc(N)c(Cl)c(C(=O)NOCc3ccco3)n2)c1F [Compound 42, 4-Amino-3-chloro-6-(4-chloro-2-fluoro-3-methoxyphenyl)-N-(furan-2-yl-methoxy)picolinamide]
- pest or weed control at 70 g/ha [1, 6]: 100%
- plant injury at 70 g/ha [2, 6]: 15%
- pest or weed control at 70 g/ha [3, 6]: 100%
- pest or weed control at 70 g/ha [4, 6]: 100%

Compound: COc1c(Cl)ccc(-c2cc(N)c(Cl)c(C(=O)NOCc3ccoc3)n2)c1F [Compound 43, 4-Amino-3-chloro-6-(4-chloro-2-fluoro-3-methoxyphenyl)-N-(furan-3-yl-methoxy)picolinamide]
- pest or weed control at 140 g/ha [1, 5]: 100%
- plant injury at 140 g/ha [2, 5]: 30%
- pest or weed control at 140 g/ha [3, 5]: 100%
- pest or weed control at 140 g/ha [4, 5]: 95%

Compound: COc1c(Cl)ccc(-c2cc(N)c(Cl)c(C(=O)NOCC3=CCCCC3)n2)c1F [Compound 44, 4-Amino-3-chloro-6-(4-chloro-2-fluoro-3-methoxyphenyl)-N-(cyclohexenyl-methoxy)picolinamide]
- pest or weed control at 140 g/ha [1, 5]: 98%
- plant injury at 140 g/ha [2, 5]: 5%
- pest or weed control at 140 g/ha [3, 5]: 100%
- pest or weed control at 140 g/ha [4, 5]: 98%

Compound: CC/C=C/CONC(=O)c1nc(-c2ccc(Cl)c(OC)c2F)cc(N)c1Cl [Compound 45, (E)-4-Amino-3-chloro-6-(4-chloro-2-fluoro-3-methoxyphenyl)-N-(2-pentenyl-oxy)picolinamide]
- pest or weed control at 140 g/ha [1, 5]: 100%
- plant injury at 140 g/ha [2, 5]: 30%
- pest or weed control at 140 g/ha [3, 5]: 100%
- pest or weed control at 140 g/ha [4, 5]: 100%

Compound: CCCCONC(=O)c1nc(-c2ccc(Cl)c(OC)c2F)cc(N)c1Cl [Compound 46, 4-Amino-N-butoxy-3-chloro-6-(4-chloro-2-fluoro-3-methoxyphenyl)picolinamide]
- pest or weed control at 70 g/ha [1, 6]: 100%
- plant injury at 70 g/ha [2, 6]: 25%
- pest or weed control at 70 g/ha [3, 6]: 100%
- pest or weed control at 70 g/ha [4, 6]: 100%

Compound: COCCONC(=O)c1nc(-c2ccc(Cl)c(OC)c2F)cc(N)c1Cl [Compound 49, 4-Amino-3-chloro-6-(4-chloro-2-fluoro-3-methoxyphenyl)-N-(2-methoxy-ethoxy)picolinamide]
- pest or weed control at 280 g/ha [1, 5]: 100%
- plant injury at 280 g/ha [2, 5]: 0%
- pest or weed control at 280 g/ha [3, 5]: 100%
- pest or weed control at 280 g/ha [4, 5]: 100%

Compound: COc1c(Cl)ccc(-c2cc(N)c(Cl)c(C(=O)NOCCC#N)n2)c1F [Compound 50, 4-Amino-3-chloro-6-(4-chloro-2-fluoro-3-methoxyphenyl)-N-(2-cyanoethoxy)picolinamide]
- pest or weed control at 280 g/ha [1, 5]: 100%
- plant injury at 280 g/ha [2, 5]: 10%
- pest or weed control at 280 g/ha [3, 5]: 90%
- pest or weed control at 280 g/ha [4, 5]: 100%

Compound: COCCOCONC(=O)c1nc(-c2ccc(Cl)c(OC)c2F)cc(N)c1Cl [Compound 51, 4-Amino-3-chloro-6-(4-chloro-2-fluoro-3-methoxyphenyl)-N-((2-methoxyethoxy)-methoxy)picolinamide]
- pest or weed control at 35 g/ha [1, 5]: 100%
- plant injury at 35 g/ha [2, 5]: 35%
- pest or weed control at 35 g/ha [3, 5]: 100%
- pest or weed control at 35 g/ha [4, 5]: 100%

Compound: COc1c(Cl)ccc(-c2cc(N)c(Cl)c(C(=O)N3CC=CCO3)n2)c1F [Compound 52, (4-Amino-3-chloro-6-(4-chloro-2-fluoro-3-methoxyphenyl)pyridin-2-yl)(3,6-dihydro-2H-1,2-oxazin-2-yl)methanone]
- pest or weed control at 35 g/ha [1, 5]: 90%
- plant injury at 35 g/ha [2, 5]: 20%
- pest or weed control at 35 g/ha [3, 5]: 100%
- pest or weed control at 35 g/ha [4, 5]: 100%

Compound: COc1c(Cl)ccc(-c2cc(N)c(Cl)c(C(=O)NO)n2)c1F [Compound 57, 4-amino-3-chloro-6-(4-chloro-2-fluoro-3-methoxyphenyl)-N-hydroxypicolinamide]
- pest or weed control at 17.5 g/ha [1, 7]: 95%
- plant injury at 17.5 g/ha [2, 7]: 0%
- pest or weed control at 17.5 g/ha [3, 7]: 95%
- pest or weed control at 17.5 g/ha [4, 7]: 90%

Compound: COc1c(N)nc(-c2ccc(Cl)c(F)c2F)nc1C(=O)NO [Compound 58, 6-Amino-2-(4-chloro-2,3-difluorophenyl)-N-hydroxy-5-methoxypyrimidine-4-carboxamide]
- pest or weed control at 280 g/ha [1, 5]: 100%
- plant injury at 280 g/ha [2, 5]: 0%
- pest or weed control at 280 g/ha [3, 5]: 100%
- pest or weed control at 280 g/ha [4, 5]: 90%

Compound: C=CCONC(=O)c1nc(-c2ccc(Cl)c(OC)c2F)cc(N)c1Cl [Compound 59, sodium 2-propenyloxy(4-amino-3-chloro-6-(4-chloro-2-fluoro-3-methoxyphenyl)picolinoyl)amide]
- pest or weed control at 70 g/ha [1]: 95%
- plant injury at 70 g/ha [2]: 10%
- pest or weed control at 70 g/ha [3]: 85%
- pest or weed control at 70 g/ha [4]: 100%
